Assay results from ChEMBL document CHEMBL3862033 (J Med Chem, 2016).

Legend:
[1] = target: T1, 5-hydroxytryptamine receptor 2C (Homo sapiens) (UniProt P28335); test: Displacement of [3H]mesulergine from human 5-HT2CR expressed in Flp-In HEK cell membranes at 10 uM incubated for 90 mins under dark condition by microbeta scintillation counting method relative to control; conditions: HEK293
T1 sequence (whole entry): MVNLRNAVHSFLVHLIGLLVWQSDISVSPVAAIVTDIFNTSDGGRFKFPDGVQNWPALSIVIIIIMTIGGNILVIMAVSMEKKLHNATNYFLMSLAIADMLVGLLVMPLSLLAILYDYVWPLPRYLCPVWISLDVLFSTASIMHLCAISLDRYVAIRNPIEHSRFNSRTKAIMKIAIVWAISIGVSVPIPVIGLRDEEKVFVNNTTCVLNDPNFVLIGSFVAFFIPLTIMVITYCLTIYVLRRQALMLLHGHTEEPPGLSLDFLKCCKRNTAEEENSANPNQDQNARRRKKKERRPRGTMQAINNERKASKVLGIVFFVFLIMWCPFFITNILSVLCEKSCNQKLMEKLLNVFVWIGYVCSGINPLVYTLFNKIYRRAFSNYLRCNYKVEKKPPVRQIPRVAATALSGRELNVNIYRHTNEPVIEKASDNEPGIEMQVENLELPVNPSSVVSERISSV

[2] = target: 5-hydroxytryptamine receptor 2A (Homo sapiens, UniProt P28223); test: Displacement of [3H]ketanserin from human 5-HT2A receptor expressed in HEK-T cell membranes at 10 uM incubated for 90 mins under dark condition by microbeta scintillation counting method relative to control
5-hydroxytryptamine receptor 2A, sequence (P28223 whole entry): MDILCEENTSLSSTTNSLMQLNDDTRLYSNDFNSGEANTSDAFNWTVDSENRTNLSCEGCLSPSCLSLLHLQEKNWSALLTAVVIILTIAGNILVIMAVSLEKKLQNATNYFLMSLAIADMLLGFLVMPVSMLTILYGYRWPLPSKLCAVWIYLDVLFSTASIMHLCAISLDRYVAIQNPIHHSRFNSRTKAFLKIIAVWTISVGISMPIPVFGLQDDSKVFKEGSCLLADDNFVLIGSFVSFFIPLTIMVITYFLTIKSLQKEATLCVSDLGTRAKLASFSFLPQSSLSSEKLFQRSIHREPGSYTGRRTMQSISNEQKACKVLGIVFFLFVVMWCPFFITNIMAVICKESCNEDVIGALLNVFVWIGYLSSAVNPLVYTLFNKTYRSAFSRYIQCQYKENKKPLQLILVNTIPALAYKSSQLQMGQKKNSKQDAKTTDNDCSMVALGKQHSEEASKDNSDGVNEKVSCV

[3] = target: 5-hydroxytryptamine receptor 1D (Homo sapiens) (UniProt P28221); test: Displacement of [3H]5-CT from human 5-HT1D receptor expressed in HEK-T cell membranes at 10 uM incubated for 90 mins under dark condition by microbeta scintillation counting method relative to control
5-hydroxytryptamine receptor 1D (Homo sapiens), sequence (P28221 whole entry): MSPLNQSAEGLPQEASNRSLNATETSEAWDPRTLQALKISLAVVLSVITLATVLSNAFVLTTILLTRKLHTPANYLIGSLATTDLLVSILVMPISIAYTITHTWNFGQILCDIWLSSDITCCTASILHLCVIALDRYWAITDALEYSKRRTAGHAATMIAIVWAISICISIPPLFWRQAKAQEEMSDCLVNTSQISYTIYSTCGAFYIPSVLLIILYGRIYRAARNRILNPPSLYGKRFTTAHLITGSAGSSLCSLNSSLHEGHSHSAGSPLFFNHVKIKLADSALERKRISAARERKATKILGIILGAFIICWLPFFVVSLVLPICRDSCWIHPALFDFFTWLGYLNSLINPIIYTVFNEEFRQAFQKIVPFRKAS

[4] = target: T2, 5-hydroxytryptamine receptor 2C (Homo sapiens, UniProt P28335); test: Displacement of [3H]mesulergine from human 5-HT2CR expressed in Flp-In HEK cell membranes incubated for 90 mins under dark condition by microbeta scintillation counting method; parameters: species or system HEK293
T2 sequence (P28335 whole entry): T1 sequence (whole entry)

[5] = target: T3, 5-hydroxytryptamine receptor 3A (Homo sapiens) (UniProt P46098); test: Displacement of [3H]GR65630 from human 5-HT3 receptor expressed in HEK-T cell membranes at 10 uM incubated for 90 mins under dark condition by microbeta scintillation counting method relative to control
T3 sequence (whole entry): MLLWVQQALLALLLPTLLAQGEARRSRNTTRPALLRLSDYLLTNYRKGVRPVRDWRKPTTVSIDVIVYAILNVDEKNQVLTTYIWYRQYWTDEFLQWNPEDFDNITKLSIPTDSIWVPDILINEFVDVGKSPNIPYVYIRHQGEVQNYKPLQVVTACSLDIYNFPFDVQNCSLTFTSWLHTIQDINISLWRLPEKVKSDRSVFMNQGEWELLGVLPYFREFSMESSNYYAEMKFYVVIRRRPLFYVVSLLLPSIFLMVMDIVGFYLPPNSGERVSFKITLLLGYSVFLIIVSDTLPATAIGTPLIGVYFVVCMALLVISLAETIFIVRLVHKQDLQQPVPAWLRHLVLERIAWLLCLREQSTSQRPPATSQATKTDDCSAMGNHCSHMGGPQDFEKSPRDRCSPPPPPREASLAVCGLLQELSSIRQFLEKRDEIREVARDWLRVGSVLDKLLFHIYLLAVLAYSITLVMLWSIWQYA

[6] = target: T4, 5-hydroxytryptamine receptor 1A (Homo sapiens) (UniProt P08908); test: Displacement of [3H]WAY100635 from human 5-HT1AR expressed in CHO cell membranes at 10 uM incubated for 90 mins under dark condition by microbeta scintillation counting method relative to control
T4 sequence (whole entry): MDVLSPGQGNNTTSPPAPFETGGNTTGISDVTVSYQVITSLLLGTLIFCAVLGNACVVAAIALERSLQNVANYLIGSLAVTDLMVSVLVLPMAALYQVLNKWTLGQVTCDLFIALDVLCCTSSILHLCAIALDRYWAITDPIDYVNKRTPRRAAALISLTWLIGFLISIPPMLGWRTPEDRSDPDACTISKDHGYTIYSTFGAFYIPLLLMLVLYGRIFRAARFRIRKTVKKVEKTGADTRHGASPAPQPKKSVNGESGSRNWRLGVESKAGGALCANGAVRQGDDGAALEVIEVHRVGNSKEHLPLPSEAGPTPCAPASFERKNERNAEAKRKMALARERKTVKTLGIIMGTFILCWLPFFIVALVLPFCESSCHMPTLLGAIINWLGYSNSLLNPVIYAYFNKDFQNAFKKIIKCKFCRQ

Adenosine receptor A1 = target: T5, Adenosine receptor A1 (Homo sapiens, UniProt P30542); test: Displacement of [3H]N6-phenylisopropyladenosine from recombinant human A1AR expressed in CHO cell membranes after 60 mins by liquid scintillation counting method
T5 sequence (P30542 whole entry): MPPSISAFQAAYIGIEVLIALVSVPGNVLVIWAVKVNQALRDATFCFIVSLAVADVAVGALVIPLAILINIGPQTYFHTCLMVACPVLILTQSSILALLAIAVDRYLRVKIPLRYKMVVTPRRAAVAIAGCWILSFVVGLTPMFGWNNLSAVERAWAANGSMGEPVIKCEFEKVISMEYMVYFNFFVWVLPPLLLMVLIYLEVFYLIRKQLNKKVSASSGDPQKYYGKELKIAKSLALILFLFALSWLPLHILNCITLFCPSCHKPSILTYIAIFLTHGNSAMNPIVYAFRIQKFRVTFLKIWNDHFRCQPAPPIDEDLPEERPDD

[7] = target: T6, 5-hydroxytryptamine receptor 2B (Homo sapiens, UniProt P41595); conditions: HEK293, at 10 µM
T6 sequence (P41595 whole entry): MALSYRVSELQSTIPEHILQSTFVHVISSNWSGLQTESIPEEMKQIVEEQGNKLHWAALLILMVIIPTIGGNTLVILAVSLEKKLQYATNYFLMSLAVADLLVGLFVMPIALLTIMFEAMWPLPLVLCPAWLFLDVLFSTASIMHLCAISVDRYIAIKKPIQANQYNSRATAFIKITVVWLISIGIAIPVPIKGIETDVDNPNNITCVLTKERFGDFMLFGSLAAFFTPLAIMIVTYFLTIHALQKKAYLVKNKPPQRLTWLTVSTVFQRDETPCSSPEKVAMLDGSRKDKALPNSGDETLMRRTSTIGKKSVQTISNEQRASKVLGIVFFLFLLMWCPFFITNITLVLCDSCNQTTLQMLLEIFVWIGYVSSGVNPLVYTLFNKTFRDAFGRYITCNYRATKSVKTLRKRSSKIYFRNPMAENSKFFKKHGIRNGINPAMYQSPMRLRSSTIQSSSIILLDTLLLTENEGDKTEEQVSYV

[8] = target: T6, 5-hydroxytryptamine receptor 2B; assay type: functional, cell-based, HEK293
[9] = target: T7, Adenosine receptor A3 (Mus musculus) (UniProt Q61618); test: Agonist activity at recombinant mouse A3AR expressed in HEK293 cells assessed as inhibition of forskolin-stimulated cAMP accumulation at 10 uM after 15 mins relative to adenosine-5'-N-ethyluronamide; assay type: functional, cell-based
T7 sequence (whole entry): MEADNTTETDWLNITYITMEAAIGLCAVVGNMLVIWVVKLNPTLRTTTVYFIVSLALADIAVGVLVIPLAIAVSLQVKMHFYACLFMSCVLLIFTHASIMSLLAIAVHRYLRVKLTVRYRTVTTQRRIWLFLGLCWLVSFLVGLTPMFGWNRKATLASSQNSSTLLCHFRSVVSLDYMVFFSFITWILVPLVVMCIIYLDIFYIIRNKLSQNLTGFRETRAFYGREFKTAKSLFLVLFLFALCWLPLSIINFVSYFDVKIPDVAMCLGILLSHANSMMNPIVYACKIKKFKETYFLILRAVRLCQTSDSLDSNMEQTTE

[10] = target: T6, 5-hydroxytryptamine receptor 2B; test: biochemical; assay type: cell-based, HEK293

Row | Structure (SMILES) | inhibition [1] [%] | inhibition [2] [%] | inhibition [3] [%] | Ki [4] [nM] | inhibition [5] [%] | inhibition [6] [%] | Ki (Adenosine receptor A1) [nM] | inhibition [7] [%] | Ki [8] [nM] | Imax [9] [%] | Ki [10] [nM]
1 | OC[C@@]12C[C@@H]1[C@@H](n1cnc3c(NC(C4CC4)C4CC4)nc(Cl)nc31)[C@H](O)[C@@H]2O | > 50 | < 10 | < 50 | 84 | < 50 | < 50 | 39 |  |  |  | 
2 | COC(=O)[C@@]12C[C@@H]1[C@@H](n1cnc3c(NC(C4CC4)C4CC4)nc(Cl)nc31)[C@H](O)[C@@H]2O | > 50 | < 10 | < 50 | 117 | < 50 | < 50 | 437 | > 50 | 3.2 | 41.4 | 19
3 | CCOC(=O)[C@@]12C[C@@H]1[C@@H](n1cnc3c(NC(C4CC4)C4CC4)nc(Cl)nc31)[C@H](O)[C@@H]2O | > 50 |  | < 50 | 30 | < 50 | < 50 | 360 | > 50 | 1.8 | 26.3 | 15
4 | CNC(=O)[C@@]12C[C@@H]1[C@@H](n1cnc3c(NC(C4CC4)C4CC4)nc(Cl)nc31)[C@H](O)[C@@H]2O | > 50 | < 10 | < 50 | 269 | < 50 | < 50 | 110 | > 50 | 4.4 | 96.7 | 23
